Data reported in US9090651B2, “Helix 12 directed pharmaceutical products” (ENDORECHERCHE, INC., priority 2004, dated 2015).

Tests used:
Human Androgen Receptor = biological target: T1, Human Androgen Receptor (Homo sapiens, UniProt P10275); test: Androgen receptor binding assay (hydroxylapatite, [3H]R1881, cytosol of transfected HEK-293 cells); settings: % RBA=100×IC50 R1881/IC50 compound, transfected cells
T1 sequence (P10275 1-920): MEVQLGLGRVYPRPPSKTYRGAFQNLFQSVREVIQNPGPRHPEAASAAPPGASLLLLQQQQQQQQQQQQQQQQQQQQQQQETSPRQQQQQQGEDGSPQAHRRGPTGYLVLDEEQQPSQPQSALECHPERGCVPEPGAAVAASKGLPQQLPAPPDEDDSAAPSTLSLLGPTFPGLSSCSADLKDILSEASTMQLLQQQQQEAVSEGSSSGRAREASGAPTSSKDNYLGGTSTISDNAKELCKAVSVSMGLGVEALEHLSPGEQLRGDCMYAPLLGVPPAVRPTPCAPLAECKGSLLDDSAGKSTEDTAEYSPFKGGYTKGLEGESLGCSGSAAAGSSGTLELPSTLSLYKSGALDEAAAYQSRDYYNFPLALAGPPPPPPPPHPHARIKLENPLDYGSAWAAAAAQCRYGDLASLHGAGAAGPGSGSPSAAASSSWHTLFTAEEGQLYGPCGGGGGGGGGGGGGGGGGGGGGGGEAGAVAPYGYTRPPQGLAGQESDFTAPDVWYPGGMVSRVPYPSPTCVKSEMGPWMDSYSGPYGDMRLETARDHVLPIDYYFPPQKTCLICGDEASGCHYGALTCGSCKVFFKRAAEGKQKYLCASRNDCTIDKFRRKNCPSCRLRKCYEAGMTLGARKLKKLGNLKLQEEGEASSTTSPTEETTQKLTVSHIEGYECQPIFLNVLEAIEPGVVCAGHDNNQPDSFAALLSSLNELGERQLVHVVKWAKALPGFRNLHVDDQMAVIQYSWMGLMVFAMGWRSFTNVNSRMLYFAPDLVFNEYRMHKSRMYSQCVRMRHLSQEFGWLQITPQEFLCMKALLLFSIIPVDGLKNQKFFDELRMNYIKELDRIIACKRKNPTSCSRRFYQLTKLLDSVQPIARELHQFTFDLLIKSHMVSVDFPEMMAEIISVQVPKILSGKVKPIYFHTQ

rat prostate = test: Systemic antiandrogenic activity, orchidectomized immature male rats with DHT implant: prostate weight; format: in vivo
Method: (§1) Immature male rats (Crl:CD(SD)Br) 22 to 24-day old were obtained from Charles-River, Inc. (St-Constant, Quebec, Canada) and housed up to 5 per cage in plastic bins in a temperature (23±1° C.)- and light (12 h light/day, lights on at 7 h15)-controlled environment. The rats were fed rodent chow and tap water ad libitum. The day following their arrival, the animals were orchidectomized (CX) under Isoflurane anesthesia via scrotal route and randomly assigned to groups of 5 animals.
(§2) Compounds were solubilized (when possible) in dimethylsulfoxide (DMSO, 10% final concentration) and administered as suspension in 0.4% methylcellulose. […] One group of animals received the antiandrogen Flutamide as reference. The animals were killed by cervical dislocation under isoflurane anesthesia on the 8th morning following castration. The ventral prostate and seminal vesicles were rapidly dissected and weighed.
(§3) W is the weight of the prostate or the seminal vesicle.

rat seminal vesicle = test: Systemic antiandrogenic activity, orchidectomized immature male rats with DHT implant: seminal vesicle weight; format: in vivo
Method: as §1, §2, §3

[1] = test system: ventral prostate, seminal vesicle and levator ani; test: In vivo assessment of SARM effect on immature rats; design: species or system rat
Method: as §1
as §2, with “To evaluate the antiandrogenic activity, tested compounds were administered subcutaneously once daily at a dose of 0.5 mg/animal for antiandrogenitic activity or 0.2 mg/animal for androgenic activity for 7 days (SD 1 to 7). Compounds” for “Compounds”

[2] = 0.5 mg/day s.c., DHT 1-cm length implant
[3] = 0.2 mg/day s.c., absence of exogenous androgens, immature rats

## CC(NC1CCCC1)c1cccc(OCC[C@]23CCC4C5CCC(=O)C=C5C[C@H](C)C4C2CC[C@@]3(C)O)c1 (stereo in doubt) [EM-7216]
Human Androgen Receptor
  Androgen Receptor Binding (%) Human RBA R1881 = 100: 77%
Rat prostate; [2]
  inhibition of the stimulated weight of ventral prostate: 28%
Rat prostate; Rattus norvegicus, sc, 168 h, read-out: IN VIVO Rat s.c. (+DHT) Prostate % inhibition, s.c., 0.5 mg/animal once daily for 7 days, +DHT
  inhibition in vivo at 0.5 mg: 28%
Rat seminal vesicle; [2]
  inhibition of the stimulated weight of seminal vesicle: no inhibiting effect
Rat seminal vesicle; Rattus norvegicus, sc, 168 h, read-out: IN VIVO Rat s.c. (+DHT) SV % inhibition, s.c., 0.5 mg/animal once daily for 7 days, +DHT
  inhibition in vivo at 0.5 mg: 0%
[1]; [3]
  stimulation of the weight of levator ani: 238
  stimulation of the weight of seminal vesicle: 200%
  stimulation of the weight of ventral prostate: 370%
[1]; [2]
  inhibition of the stimulated weight of levator ani: no inhibiting effect
